In data set [1] the test system is A 431 tumors. Kind of data set: Intratumoral angiogenesis of A 431 tumors (GSL 1 immunohistochemistry, image analysis). The class given is in vivo, mice. The settings on record: observed starting from the lowest doses (0.006 mg/injection). On the procedure: Animals were sacrificed and the tumors excised, then weighed, fixed, embedded in paraffin and sliced. Endothelial cells from tumor blood vessels laid down during tumor angiogenesis were visualized by immunohistochemical methods (GSL 1). Tumor angiogenesis was evaluated by image analysis with NIH image software.

Data set [2] in a line: Toxicity test in tumor-free immunosuppressed mice. The data set is classed as in vivo. The note with it: one injection per day for one week. As to the method:
Tumor-free immunosuppressed mice were treated with BP1 and BP2 at doses ranging from 0.06 to 6 mg per injection and per animal. Mice received one injection per day for one week. Animals were weighed before, during and after treatment.

The nature of data set [3]: Trypan blue exclusion test (cytotoxicity of BP1 and BP2). The data set is classed as cell-based. The settings on record: even at concentrations above 5 mM.
The test system of data set [4] is A 431 tumors. Kind of data set: In vivo growth of subcutaneous A 431 tumors in immunosuppressed mice. The note with it: for inhibition of the growth of A 431 tumors: 0.6 mg/injection/mouse, twice weekly s.c. near the tumor, after 5 weeks of treatment, P<0.05. On the procedure: A 431 cells were injected subcutaneously into immunosuppressed mice. The mice developed tumors within one week. Tumor-bearing mice were assigned randomly to a control group or to treatment groups receiving different concentrations of BP1 and BP2.
Mice received twice weekly by subcutaneous injection near the tumor either 0.1 ml of PBS alone for the controls (n=6), or PBS containing either BP1 or BP2 at the following doses: 0.006 (n=6); 0.06 (n=6) or 0.6 mg/injection (n=6). Tumors were measured weekly and their volume V calculated by the formula: V=(4/3)πR1^2R2 wherein R1 is radius 1 and R2 radius 2, with R1<R2.

Data set [5] concerns MDA MB 435 human breast tumor cells. Kind of data set: MTT cell proliferation test, MDA MB 435 cells. The class given is cell-based. The note with it: 2 mM, after 48 h of culture. As to the method:
(§1) The bisphosphonates BP1 and BP2 were tested in different cell lines: • FRCjun MRA, a murine fibrosarcoma cell line produced by transfection of FR3T3 cells by the oncogene jun-4, • A 431 human carcinoma cells. These cells harbor a VEGF (vascular endothelial growth factor) autocrine loop and, after implantation in immunosuppressed mice, induce rapid development of highly angiogenic tumors. • MDA MB 435 human breast tumor cells, • HUV-EC-C, transformed human umbilical cord endothelial cells (HUVEC), • BBC, bovine cerebral capillary endothelial cells.
(§2) Cell proliferation in the presence of different concentrations of BP1 or BP2 was measured by an MTT test after 24, 48 and 72 h of culture.

Data set [6] deals with FRCjun MRA, a murine fibrosarcoma cell line. Kind of data set: MTT cell proliferation test, FRCjun MRA cells. The data set is classed as cell-based. The note with it: Mus musculus; 2 mM, after 48 h of culture, FRCjunMRA cells. As to the method:
as §1, §2

Data set [7] relates to A 431 human carcinoma cells. Kind of data set: MTT cell proliferation test, A 431 cells. The settings on record: 2 mM. The data set is classed as cell-based. As to the method: as §1, §2
Data set [8] has as its system MCF7-ras tumors. Kind of data set: Anti-angiogenic effect in MCF7-ras tumors, GSL1 lectin method. The data set is classed as in vivo, mice. As to the method: The anti-angiogenic was verified by the GSL1 lectin method.
By using GSL1 lectin, angiogenesis is determined and identified by the red coloration staining of endothelial cells with anti-GSL1 antibody. It is noted that this angiogenesis is inhibited by the treatment of the tumors with phenylacetate bisphosphonate. This effect is partial but important (80%) at the 80 mg/kg dose. and complete at 160 mg/kg.

In data set [9] the test system is MCF7-ras tumors. In words: In vivo antitumor effect on MCF7-ras tumors in female athymic nude mice. As to the method:
Inoculation of 4×10^6 MCF7-ras cells in female athymic nude mice is made sub-cutaneously in a 0.1 ml volume of DMEM, which induces 70% of tumors after three weeks.
Treatment with phenylacetate bisphosphonate begun when the mean volume of the tumors was 550 mm^3. The animals are divided in two groups, on receiving phenylacetate bisphosphonate, and the other no. Phenylacetate bisphosphonate is injected sub-cutaneously and peritumorally, twice a week, during 5 weeks, and the doses are 80 mg/kg (5 cases) and 160 mg/kg (6 cases).

Data set [10] concerns MCF7-ras cells. In words: MCF7-ras cell growth and viability (Trypan blue test). The data set is classed as cell-based. The settings on record: for toxicity (cell viability, Trypan blue): 8 and 10 mM. As to the method: MCF7-ras cells are cultivated (20,000 cells/well), on a dish of 24 wells. After incubation for 24 hours, the medium (DMEM with 10% foetal calf serum) is replaced with the same medium to which are added various concentrations of phenylacetate bisphosphonate (2 mM, 4 mM, 6 mM, 8 mM and 10 mM). The cells are incubated for 1 to 4 days at 37° C. The cell viability is controlled by the Trypan blue test.

Data set [11] relates to MCF7-ras cells. Kind of data set: DNA degradation (agarose gel electrophoresis), MCF7-ras cells. The class given is cell-based. The note with it: 10 mM, after 96 hours. As to the method:
(§3) The cell apoptosis is confirmed by the method of DNA degradation. MCF7 and MCF7-ras cells are cultivated (5×10^5 cells in T25 flasks). After 24 hours, the cells are washed, and then cultivated in DMEM medium with 10% of foetal calf serum; phenylacetate bisphosphonate (10 mM) is added to one group, and no phenylacetate bisphosphonate is added to the other group.
(§4) After 96 hours, the cell extract containing the fragmented DNA is incubated with 0.5 mg/ml of RNase A at 37° C. for one hour, then with 0.5 mg/ml of proteinase K for one hour at 37° C. After incubation, the fragmented DNA is precipitated by isopropanol and then dissolved in 10 mM of Tris-HCl (pH 8) […], 5% of glycerol and 0.05% bromophenol blue. The fragmented DNA separated by electrophoresis on agarose gel at 1% is marked with ethidium bromide and photographed in UV.

The test system of data set [12] is MCF7 cells. Kind of data set: Apoptosis by Annexine V-FITC / propidium iodide, MCF7 cells. The class given is cell-based. The note with it: 10 mM, after 4 hours of treatment. As to the method:
(§5) In order to determine the nature of the toxicity of sodium phenylacetate bisphosphonate, MCF7 and MCF7-ras cells are cultivated, and then washed after 24 hours, and cultivated for 3 hours in DMEM medium with 10% of foetal calf serum. Phenylacetate bisphosphonate (10 mM) is added to one group but not to the other group. Apoptosis is determined by the test of Annexine V conjugated with FITC antibody. Propidium iodide is used in order to determine early apoptosis (positive staining for Annexine V and negative staining with propidium iodide) and late apoptosis (positive staining with Annexine V and with propidium iodide).

Data set [13] relates to acute hepatitis. Kind of data set: Liver histology (HES) in nude mice having an acute hepatitis. The data set is classed as in vivo. The note with it: 80 mg/kg or 160 mg/kg s.c., twice a week for five weeks. As to the method: The study is carried out on nude mice having an acute hepatitis. The mice are divided in two groups, one being treated with sodium phenylacetate bisphosphonate, whilst the second is not. Phenylacetate bisphosphonate is administered to the treated mice sub-cutaneously (80 mg/kg or 160 mg/kg), twice a week for five weeks. The mice are sacrificed and the liver is histologically analyzed after HES (method of Hematoxiline Eosine Staining).

For data set [14], the system named is MCF7-ras cells. Kind of data set: Reversibility of proliferation inhibition, tritiated thymidine incorporation. The data set is classed as cell-based. The note with it: 10 days treatment, thymidine after 15 days. As to the method: In order to check the reversibility of the effect of phenylacetate bisphosphonate, MCF7-ras cells have been treated with increasing concentrations of phenylacetate bisphosphonate for 10 days, the medium being changed every two days. The cells are divided in two groups. The DMEM medium supplemented with 10% of foetal calf serum is added to the first group, and the same medium with 10 mM of phenylacetate bisphosphonate is added to the second group, the medium being changed every two days. After 15 days, tritiated thymidine is added during 4 hours and the radioactivity of the suspension is determined by using a beta liquid scintigraphic counter (Beckman).

The test system of data set [15] is MCF7-ras cells. Kind of data set: Apoptosis by Annexine V-FITC / propidium iodide, MCF7-ras cells. The data set is classed as cell-based. The note with it: 10 mM, after 4 hours of treatment. As to the method:
as §5

Data set [16] has as its system MCF7-ras tumors. Kind of data set: Pro-apoptotic effect in MCF7-ras tumors, M30 antibody staining. The class given is in vivo, mice. An excerpt: Further, the proapoptotic effect of phenylacetate bisphosphonate is confirmed by the technique of antibody staining. The staining of apoptotic cells is made by the M30 antibody which recognises the specific site of caspases on the cytokeratine 18 filaments produced by the epithelial cells. Such filaments rapidly aggregate in the cells in early apoptosis, by hyperphosphorylation of cytokeratines. By this cytoplasmic staining, granular structures are observed inside the cytoplasm, which corresponds to cells in late apoptosis.

The test system of data set [17] is MCF7 cells. In words: DNA degradation (agarose gel electrophoresis), MCF7 cells. The note with it: 10 mM, after 96 hours. The data set is classed as cell-based. As to the method:
as §3, §4

For the molecule `O=P(O)(O)C(O)(Cc1ccccc1)P(=O)(O)O` [BP1, reference compound], the “inhibition of intratumoral angiogenesis (endothelial cell area per unit of area)” value in [1] is reported as “significant decrease in endothelial cell area per unit of area”. Besides, the “signs of toxicity such as hair loss, diarrhea, infection or anemia” value in data set [2] (doses less than 6 mg/injection) is given as “no signs of toxicity”. For the same molecule, the “cytotoxicity (trypan blue exclusion)” value in data set [3] is given as “do not induce cytotoxicity”. The “inhibition of the growth of A 431 tumors” value in data set [4] is 40%.
Consider `COP(=O)(O)C(O)(Cc1ccccc1)P(=O)(O)OC` (centres unmarked) [BP2], for which the inhibition at 2000 µM in data set [5] came out at 60%; in data set [6] it was 40%; in [7] (after 48 h of culture), 30%; in data set [7] (after 72 h, P<0.05) it was 80%. The “inhibition of intratumoral angiogenesis (endothelial cell area per unit of area)” value in data set [1] is listed as “significant decrease in endothelial cell area per unit of area”. For the same molecule, the “signs of toxicity such as hair loss, diarrhea, infection or anemia” value in data set [2] (all doses tested (0.06–6 mg/injection)) is given as “no signs of toxicity”. The “cytotoxicity (trypan blue exclusion)” value in data set [3] is “do not induce cytotoxicity”. The “inhibition of the growth of A 431 tumors” value in data set [4] was found to be 56%. Further, in [4] (A 431 tumors in mice), the “comparative in vivo efficacy” value was “greater efficacy than BP1”.
As for `O=P(O)(O)C(O)(Cc1ccccc1)P(=O)(O)O` [phenylacetate bisphosphonate], the figures for the “inhibition of tumor angiogenesis” value in data set [8] (80 mg/kg dose) and in data set [8] (160 mg/kg) were 80% and “complete”, respectively. The figures for the “tumor growth when the treatment is stopped” value in [9] (80 mg/kg dose) and in data set [9] (160 mg/kg dose) were “tumor growth relapsed is observed” and “blocked for at least three weeks”, respectively. Moreover, the “inhibition of the growth of the tumors” value in [9] (80 and 160 mg/kg s.c. peritumorally, twice a week, 5 weeks, at the end of the treatment) is “irreversible and dose dependent”. Further, the “toxic effect in vivo” value in data set [9] (even when the treatment is applied during a long period of time) is “without any toxic affect”. Moreover, in [9] (first five or six weeks of treatment), the “proliferation of MCF7-ras cells and growth of mammary tumors in vivo” value is listed as “irreversibly blocks”. The “immunohistologic analysis of the tumors: what the decrease in tumor growth is related to” value in [9] (treated MCF7-ras tumors) is “induction of apoptosis, to a sharp decrease of angiogenesis of the tumor and induction of fibrose in the tumor”. Moreover, the “toxicity (cell viability, Trypan blue)” value in data set [10] (by the fourth day of culture) is 50–60%; in [10] (three first days of culture) it was 10%. In data set [10] (concentrations lower than 6 mM, three first days of culture), the “effect on cell growth” value is “cytostatic”. Moreover, the “degradation of DNA” value in data set [11] and in data set [17] was “dramatic degradation of DNA” each time. Besides, the results for the “percentage of cells in late apoptosis” value in [12] (MCF7 cells) and in data set [15] (MCF7-ras cells) were 22% and 53%, respectively. The “percentage of cells in early apoptosis” value in data set [12] (MCF7 compared with MCF7-ras) and in data set [15] (MCF7-ras compared with MCF7) was “almost identical in the two cell types” throughout. For the same molecule, in data set [13], the “hepatic toxicity noted in treated mice” value is listed as 4 cases out of 5. In addition, the entries for the “reversibility of the inhibition of cell proliferation” value in data set [14] (dose above 4 mM) and in data set [14] (dose of 2 mM) were “irreversible” and “partially reversible”, respectively. In addition, the “state of tumor cells (M30 / cytokeratine 18 staining)” value is on record as “apoptosis” in data set [16] (80 mg/kg dose) and “aponecrosis” in data set [16] (160 mg/kg dose).

These data come from patent US7005533B2, “Bisphosphonate derivatives, their preparations and uses” (Universite Paris 13, priority 2001, dated 2006).
